According to patent US20090093469A1, “Phenylaminopropanol Derivatives and Methods of Their Use” (WYETH, priority 2004, published 2009):
Counter-ions that a name gives are not always drawn.

These compounds were tested against T1, hNET (Homo sapiens, UniProt P23975) (assay: Norepinephrine (NE) uptake assay in MDCK-Net6 cells stably transfected with human hNET). Conditions: MDCK-Net6, read-out: % Inhibition @ 1 μM (hNET).
T1 construct: expressed in transfected cells
Type: cell-based
Experimental: Cells were plated at 300,000/T75 flask and cells were split twice weekly. […] Cells were plated at 250,000 cells/T75 flask and split twice weekly.
On day 1, cells were plated at 3,000 cells/well in growth medium and maintained in a cell incubator (37° C., 5% CO2). On day 2, growth medium was replaced with 200 μl of assay buffer (25 mM HEPES; 120 mM NaCl; 5 mM KCl; 2.5 mM CaCl2; 1.2 mM MgSO4; 2 mg/ml glucose (pH 7.4, 37° C.)) containing 0.2 mg/ml ascorbic acid and 10 μM pargyline. Plates containing cells with 200 μl of assay buffer were equilibrated for 10 minutes at 37° C. prior to addition of compounds. A stock solution of desipramine was prepared in DMSO (10 mM) and delivered to triplicate wells containing cells for a final test concentration of 1 μM. Data from these wells were used to define non-specific NE uptake (minimum NE uptake). Test compounds were prepared in DMSO (10 mM) and diluted in assay buffer according to test range (1 to 10,000 nM). Twenty-five microliters of assay buffer (maximum NE uptake) or test compound were added directly to triplicate wells containing cells in 200 μl of assay buffer. The cells in assay buffer with test compounds were incubated for 20 minutes at 37° C. To initiate the NE uptake, [^3H]NE diluted in assay buffer (120 nM final assay concentration) was delivered in 25 μl aliquots to each well and the plates were incubated for 5 minutes (37° C.). The reaction was terminated by decanting the supernatant from the plate. The plates containing cells were washed twice with 200 μl assay buffer (37° C.) to remove free radioligand. The plates were then inverted, left to dry for 2 minutes, then reinverted and air-dried for an additional 10 minutes. The cells were lysed in 25 μl of 0.25 N NaOH solution (4° C.), placed on a shake table and vigorously shaken for 5 minutes. After cell lysis, 75 μl of scintillation cocktail was added to each well and the plates were sealed with film tape. The plates were returned to the shake table and vigorously shaken for a minimum of 10 minutes to ensure adequate partitioning of organic and aqueous solutions. The plates were counted in a Wallac Microbeta counter (PerkinElmer) to collect the raw cpm data.
For each experiment, a data stream of cpm values collected from the Wallac Microbeta counter was downloaded to a Microsoft Excel statistical application program. Calculations of EC50 values were made using the transformed-both-sides logistic dose response program written by Wyeth Biometrics Department.

T1 sequence (P23975 whole entry): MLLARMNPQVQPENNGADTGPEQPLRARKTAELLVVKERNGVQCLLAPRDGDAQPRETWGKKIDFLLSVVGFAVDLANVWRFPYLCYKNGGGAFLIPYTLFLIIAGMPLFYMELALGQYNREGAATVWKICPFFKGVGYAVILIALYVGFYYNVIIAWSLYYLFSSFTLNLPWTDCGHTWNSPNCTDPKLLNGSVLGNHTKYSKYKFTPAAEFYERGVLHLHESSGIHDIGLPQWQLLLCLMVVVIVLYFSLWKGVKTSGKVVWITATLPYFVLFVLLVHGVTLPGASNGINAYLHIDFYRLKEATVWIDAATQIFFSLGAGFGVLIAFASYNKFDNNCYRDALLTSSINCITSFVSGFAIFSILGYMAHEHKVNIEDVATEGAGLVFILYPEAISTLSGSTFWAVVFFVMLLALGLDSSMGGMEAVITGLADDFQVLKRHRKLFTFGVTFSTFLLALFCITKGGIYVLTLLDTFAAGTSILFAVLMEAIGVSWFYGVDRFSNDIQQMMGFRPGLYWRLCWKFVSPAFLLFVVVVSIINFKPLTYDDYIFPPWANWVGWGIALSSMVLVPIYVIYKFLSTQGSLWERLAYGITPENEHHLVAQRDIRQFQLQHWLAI

Row | SMILES | inhibition at 1 µM
1 | CCNC[C@H](O)[C@@H](c1ccccc1)n1ccc2ccccc21 (racemic) [Example 5, (1RS,2SR)-3-(ethylamino)-1-(1H-indol-1-yl)-1-phenylpropan-2-ol hydrochloride] | 58.1%
2 | CNC[C@H](O)[C@@H](c1ccccc1)n1ccc2ccccc21 (racemic) [Example 11, (1RS,2SR)-1-(1H-indol-1-yl)-3-(methylamino)-1-phenylpropan-2-ol hydrochloride] | 94.5%
3 | CCNC[C@H](O)[C@@H](c1ccccc1)n1cc(C)c2ccccc21 (racemic) [Example 12, (1RS,2SR)-3-(ethylamino)-1-(3-methyl-1H-indol-1-yl)-1-phenyl propan-2-ol hydrochloride] | 70.6%
4 | CNC[C@@H](O)[C@@H](c1ccccc1)n1ccc2ccccc21 (racemic) [Example 16, (1RS,2RS)-1-(1H-indol-1-yl)-3-(methylamino)-1-phenylpropan-2-ol hydrochloride] | 96.8%
5 | CNC[C@H](O)[C@@H](c1ccccc1)n1ccc2cc(F)ccc21 (racemic) [Example 20, (1RS,2SR)-1-(5-fluoro-1H-indol-1-yl)-3-(methylamino)-1-phenylpropan-2-ol hydrochloride] | 85%
6 | Cc1cn([C@H](c2ccccc2)[C@@H](O)CN)c2ccccc12 (racemic) [Example 24, (1RS,2SR)-3-amino-1-(3-methyl-1H-indol-1-yl)-1-phenylpropan-2-ol hydrochloride] | 57.2%
7 | CNC[C@H](O)[C@@H](c1ccccc1)n1ccc2cc(Cl)ccc21 (racemic) [Example 26, (1RS,2SR)-1-(5-chloro-1H-indol-1-yl)-3-(methylamino)-1-phenylpropan-2-ol hydrochloride] | 54%
8 | CNC[C@@H](O)[C@@H](c1ccccc1)n1ccc2cc(Cl)ccc21 (racemic) [Example 27, hydrochloride] | 75.4%
9 | CNC[C@@H](O)[C@H](c1ccccc1)n1ccc2cc(OC)ccc21 (racemic) [Example 80, (1RS,2SR)-1-(5-methoxy-1H-indol-1-yl)-3-(methylamino)-1-phenyl propan-2-ol hydrochloride] | 83.5%

Same assay, conditions: test compound 1 μM; [3H]NE uptake, MDCK-Net6 cells; read-out: % Inhibition @ 1 μM (hNET)

Row | SMILES | inhibition at 1 µM
10 | O[C@@H](CN1CCOCC1)[C@@H](c1ccccc1)n1ccc2ccccc21 (racemic) [Example 3, (1RS,2SR)-1-(1H-indol-1-yl)-3-morpholin-4-yl-1-phenylpropan-2-ol hydrochloride] | 17.6%
11 | CN(C)C[C@H](O)[C@@H](c1ccccc1)n1ccc2ccccc21 (racemic) [Example 4, (1RS,2SR)-3-(dimethylamino)-1-(1H-indol-1-yl)-1-phenylpropan-2-ol hydrochloride] | 24.5%
12 | CC(C)NC[C@H](O)[C@@H](c1ccccc1)n1ccc2ccccc21 (racemic) [Example 6, (1RS,2SR)-1-(1H-indol-1-yl)-3-(isopropylamino)-1-phenylpropan-2-ol hydrochloride] | 13.1%
13 | O[C@@H](CNCc1ccccc1)[C@@H](c1ccccc1)n1ccc2ccccc21 (racemic) [Example 7, (1RS,2SR)-3-(benzylamino)-1-(1H-indol-1-yl)-1-phenylpropan-2-ol hydrochloride] | 25.6%
14 | O[C@@H](CNCC1CCCCC1)[C@@H](c1ccccc1)n1ccc2ccccc21 (racemic) [Example 8, (1RS,2SR)-3-[(cyclohexylmethyl)amino]-1-(1H-indol-1-yl)-1-phenylpropan-2-ol hydrochloride] | 53.4%
15 | O[C@@H](CN1CCNCC1)[C@@H](c1ccccc1)n1ccc2ccccc21 (racemic) [Example 13, (1RS,2SR)-1-(1H-indol-1-yl)-1-phenyl-3-piperazin-1-ylpropan-2-ol dihydrochloride] | 34.3%
16 | O[C@@H](CNCc1ccncc1)[C@@H](c1ccccc1)n1ccc2ccccc21 (racemic) [Example 14, (1RS,2SR)-1-(1H-indol-1-yl)-1-phenyl-3-[(pyridin-4-ylmethyl)amino]propan-2-ol hydrochloride] | 24.4%
17 | O[C@@H](CN1CCCCC1)[C@@H](c1ccccc1)n1ccc2cc(Cl)ccc21 (racemic) [Example 15, (1RS,2SR)-1-(5-chloro-1H-indol-1-yl)-1-phenyl-3-piperidin-1-ylpropan-2-ol hydrochloride] | 8.5%
18 | NC[C@H](O)[C@@H](c1ccccc1)n1ccc2ccccc21 (racemic) [Example 17, (1RS,2SR)-3-amino-1-(1H-indol-1-yl)-1-phenylpropan-2-ol hydrochloride] | 71%
19 | CCNC[C@H](O)[C@@H](c1ccccc1)n1ccc2cc(F)ccc21 (racemic) [Example 18, (1RS,2SR)-3-(ethylamino)-1-(5-fluoro-1H-indol-1-yl)-1-phenylpropan-2-ol hydrochloride] | 11.3%
20 | NC[C@H](O)[C@@H](c1ccccc1)n1ccc2cc(F)ccc21 (racemic) [Example 19, (1RS,2SR)-3-amino-1-(5-fluoro-1H-indol-1-yl)-1-phenylpropan-2-ol hydrochloride] | 31.6%
21 | CCN(C)C[C@H](O)[C@@H](c1ccccc1)n1ccc2ccccc21 (racemic) [Example 25, (1RS,2SR)-3-[ethyl(methyl)amino]-1-(1H-indol-1-yl)-1-phenylpropan-2-ol hydrochloride] | 37.5%
22 | CNC[C@H](O)[C@@H](c1ccccc1)n1cc(C#N)c2ccccc21 (racemic) [Example 28, 1-[(1RS,2SR)-2-hydroxy-3-(methylamino)-1-phenylpropyl]-1H-indole-3-carbonitrile hydrochloride] | 30.1%
23 | CNC[C@@H](O)[C@H](c1ccc(OC(F)(F)F)cc1)n1ccc2ccccc21 (racemic) [Example 39, (1RS,2SR)-1-(1H-indol-1-yl)-3-(methylamino)-1-[4-(trifluoromethoxy)phenyl]propan-2-ol hydrochloride] | 57.4%
24 | CNC[C@@H](O)[C@H](c1ccc(OC)cc1)n1ccc2ccccc21 (racemic) [Example 70, (1SR,2RS)-1-(1H-indol-1-yl)-1-(4-methoxyphenyl)-3-(methylamino)propan-2-ol hydrochloride] | 77.7%
25 | CNC[C@@H](O)[C@H](c1ccccc1)n1c(C)cc2ccccc21 (racemic) [Example 71, (1RS,2SR)-3-(methylamino)-1-(2-methyl-1H-indol-1-yl)-1-phenylpropan-2-ol hydrochloride] | 44.9%
26 | CNC[C@@H](O)[C@H](c1ccccc1)n1cnc2ccccc21 (racemic) [Example 72, (1RS,2SR)-1-(1H-benzimidazol-1-yl)-3-(methylamino)-1-phenyl propan-2-ol hydrochloride] | 24%
27 | CNC[C@@H](O)[C@H](c1ccccc1)n1c(C)nc2ccccc21 (racemic) [Example 73, (1RS,2SR)-3-(methylamino)-1-(2-methyl-1H-benzimidazol-1-yl)-1-phenylpropan-2-ol hydrochloride] | 21.8%
28 | CNC[C@@H](O)[C@H](c1ccccc1)n1ccc2c(OC)cccc21 (racemic) [Example 74, (1RS,2SR)-1-(4-methoxy-1H-indol-1-yl)-3-(methylamino)-1-phenyl propan-2-ol hydrochloride] | 67%
29 | Cc1cn([C@@H](c2ccccc2)[C@H](O)CN)c2ccc(F)cc12 (racemic) [Example 118, (1SR,2RS)-3-amino-1-(5-fluoro-3-methyl-1H-indol-1-yl)-1-phenylpropan-2-ol hydrochloride] | 67.9%

Same assay, conditions: test compound 10 μM (stated in cell); [3H]NE uptake, MDCK-Net6 cells

Row | SMILES | inhibition at 10 µM
30 | CN1CCN(C[C@H](O)[C@@H](c2ccccc2)n2ccc3cc(F)ccc32)CC1 (racemic) [Example 2, (1RS,2SR)-1-(5-fluoro-1H-indol-1-yl)-3-(4-methylpiperazin-1-yl)-1-phenylpropan-2-ol dihydrochloride] | 66.5%
31 | Cc1cn([C@H](c2ccccc2)[C@@H](O)CNCC2CCCCC2)c2ccccc12 (racemic) [Example 9, (1RS,2SR)-3-[(cyclohexylmethyl)amino]-1-(3-methyl-1H-indol-1-yl)-1-phenylpropan-2-ol hydrochloride] | 79.2%
32 | Cc1cn([C@H](c2ccccc2)[C@@H](O)CNC(C)C)c2ccccc12 (racemic) [Example 10, (1RS,2SR)-3-(isopropylamino)-1-(3-methyl-1H-indol-1-yl)-1-phenylpropan-2-ol hydrochloride] | 70.5%
